The values below come from patent US9365533B2, “Coumarin derivative” (NIPPON ZOKI PHARMACEUTICAL CO., LTD., priority 2012, dated 2016).

The subject of experiment [1] is cartilage pieces of bovine metacarpophalangeal joint. As to the kind of experiment: Suppressive action to cartilage destruction: release of sGAG induced by IL-1α from cartilage pieces. The note with it: 25 μmol/L test substance, 2 h pretreatment, human recombinant IL-1α 3 ng/mL, 4 days at 37° C.; for inhibition at 25 µM: Bos taurus, 96 h, read-out: sGAG Releasing Suppressive Rate (%). The experiment is classed as cell-based. As for the experimental part: Evaluation of Suppressive Action to Cartilage Destruction [Release of sGAG Induced by Interleukin-1α (IL-1α)]
(1) Incubation of Cartilage Pieces
Each four cartilage pieces of bovine metacarpophalangeal joint were placed in each well of a 48-well plate and pretreated for 2 hours with a basal medium [D-MEM (Dulbecco's Modified Eagle Medium) containing 2 mmol/L of glutamine, 25 mmol/L of Hepes, 100 μg/mL of streptomycin, 100 IU/mL of penicillin and 5.6 μg/mL of amphotericin B] containing 25 μmol/L of a test substance. Human recombinant IL-1α (3 ng/mL) was added thereto followed by incubating at 37° C. for 4 days in a CO2 incubator set at 5 vol % of CO2. Culture supernatant and cartilage pieces were recovered and stored by freezing until the measurement for each of them.
(2) Measurement of the Amount of sGAG and Calculation of the Suppressive Rate for the Release of sGAG
The recovered cartilage pieces were treated with a papain solution [containing 1 mg/mL of papain, 100 mmol/L of sodium phosphate (pH 6.5), 5 mmol/L of L-cysteine and 5 mmol/L of disodium ethylenediaminetetraacetate (EDTA)] at 65° C. for about 16 hours to solubilize. Amount of sGAG in the resulting extract was measured using an sGAG Alcian Blue Binding Kit (Wieslab AB) which is a quantitative kit to which a Alcian blue staining protocol is applied. sGAG in the culture supernatant after the incubation was measured without subjecting to a papain treatment. Each releasing rate of sGAG was determined by the following formula to calculate the suppressive rate for the release of sGAG. Releasing rate (%) of sGAG={(Total sGAG amount in the culture supernatant)/[(Total sGAG amount in the culture supernatant)+(Total sGAG amount in the cartilage pieces)]}×100 Suppressive rate (%) for release of sGAG={[Releasing rate of sGAG (IL-1α stimulation)−Releasing rate of sGAG (Test substance)]/[Releasing rate of sGAG (IL-1α stimulation)−Releasing rate of sGAG (Non-stimulation)]}×100

In another experiment the test system is HFLS-OA cells. As to the kind of experiment: Suppressive action to TNF-α-induced proliferation of synovial cells (HFLS-OA), BrdU ELISA. The class given is cell-based. As to conditions: 200 μmol/L test substance, human recombinant TNF-α 10 ng/mL, 5 days, BrdU incorporation increase by TNF-α = 100%; for activity at 200 µM: Synovial cell, 120 h, read-out: Synovial Cell Proliferation Rate (%). (In general: Incorporation of labelled thymidine or its analogues reports DNA synthesis.)

For `O=c1oc2c(OS(=O)(=O)c3cccc(C(F)(F)F)c3)cccc2cc1NS(=O)(=O)c1cccc(C(F)(F)F)c1` [Compound 33, 2-Oxo-3-[[3-(trifluoromethyl)phenyl]sulfonylamino]-chromen-8-yl 3-(trifluoromethyl)benzenesulfonate], the inhibition at 25 µM in experiment [1] stood at 147%. Besides, the activity at 200 µM in the experiment with HFLS-OA cells was -40%.
Taken in the same sequence, the figures for `O=c1oc2c(OS(=O)(=O)c3ccc(-c4ccccc4)cc3)cccc2cc1NS(=O)(=O)c1cccc([N+](=O)[O-])c1` [Compound 62, 3-[(3-Nitrophenyl)sulfonylamino]-2-oxochromen-8-yl 4-phenylbenzenesulfonate] were 140% and -49.2%.
For the molecule `O=c1oc2c(OS(=O)(=O)c3ccccc3)cccc2cc1NS(=O)(=O)c1ccc(Cl)cc1` [Compound 29, 3-[(4-Chlorophenyl)sulfonylamino]-2-oxochromen-8-yl benzenesulfonate], in experiment [1], the inhibition at 25 µM was 121%. Also, the activity at 200 µM in the experiment on HFLS-OA cells is -31.3%.
Turning to `O=c1oc2c(OS(=O)(=O)c3cccc(Br)c3)cccc2cc1NS(=O)(=O)c1ccccc1` [Compound 34, 3-(Benzenesulfonamide)-2-oxochromen-8-yl 3-bromobenzenesulfonate], the “sGAG Releasing Suppressive Rate (%)” value in experiment [1] is reported as 109%. Further, the “Synovial Cell Proliferation Rate (%)” value in the experiment with HFLS-OA cells is given as −31.6%.
Consider `Nc1ccc(S(=O)(=O)Nc2cc3cccc(OS(=O)(=O)c4cccc(C(F)(F)F)c4)c3oc2=O)cc1` [Compound 47, 3-[(4-Aminophenyl)sulfonylamino]-2-oxochromen-8-yl 3-(trifluoromethyl)benzenesulfonate], for which, in experiment [1], the inhibition at 25 µM is 69%. The activity at 200 µM in the experiment on HFLS-OA cells was -40.1%.
Take `O=c1oc2c(OS(=O)(=O)c3cccc(Br)c3)cccc2cc1NS(=O)(=O)c1cccc([N+](=O)[O-])c1` [Compound 59, 3-[(3-Nitrophenyl)sulfonylamino]-2-oxochromen-8-yl 3-bromobenzenesulfonate]: the inhibition at 25 µM in experiment [1] turned out to be 123%. The activity at 200 µM in the experiment on HFLS-OA cells is -32.8%.
For `O=c1oc2c(OS(=O)(=O)c3cccc([N+](=O)[O-])c3)cccc2cc1NS(=O)(=O)c1cccc([N+](=O)[O-])c1` [Compound 17, 3-[(3-Nitrophenyl)sulfonylamino]-2-oxochromen-8-yl 3-nitrobenzenesulfonate], the inhibition at 25 µM in experiment [1] turned out to be 156%. Also, the activity at 200 µM in the experiment on HFLS-OA cells was -24.9%.
As for `O=c1oc2c(OS(=O)(=O)c3ccccc3)cccc2cc1NS(=O)(=O)c1cccc([N+](=O)[O-])c1` [Compound 24, 3-[(3-Nitrophenyl)sulfonylamino]-2-oxochromen-8-yl benzenesulfonate], in experiment [1], the inhibition at 25 µM stood at 90%. Moreover, in the experiment with HFLS-OA cells, the activity at 200 µM is -40%.
On to `O=c1oc2c(OS(=O)(=O)c3ccc([N+](=O)[O-])cc3)cccc2cc1NS(=O)(=O)c1cccc(C(F)(F)F)c1` [Compound 41, 2-Oxo-3-[[3-(trifluoromethyl)phenyl]sulfonylamino]-chromen-8-yl 4-nitrobenzenesulfonate], for which the inhibition at 25 µM in experiment [1] amounted to 172%. Further, in the experiment on HFLS-OA cells, the activity at 200 µM was -37.7%.
On to `O=c1oc2c(OS(=O)(=O)c3cccnc3)cccc2cc1NS(=O)(=O)c1cccc(Br)c1` [Compound 36], for which, in experiment [1], the “sGAG Releasing Suppressive Rate (%)” value came to 30%. Besides, in the experiment on HFLS-OA cells, the “Synovial Cell Proliferation Rate (%)” value is −33.9%.
In the case of `O=c1oc2c(OS(=O)(=O)c3ccccc3)cccc2cc1NS(=O)(=O)c1cccc(F)c1` [Compound 25, 3-[(3-Fluorophenyl)sulfonylamino]-2-oxochromen-8-yl benzenesulfonate], the inhibition at 25 µM in experiment [1] was found to be 77%. Moreover, the activity at 200 µM in the experiment on HFLS-OA cells was -40.9%.
For `O=c1oc2c(OS(=O)(=O)c3cccc(C(F)(F)F)c3)cccc2cc1NS(=O)(=O)c1cccc([N+](=O)[O-])c1` [Compound 51], the “sGAG Releasing Suppressive Rate (%)” value in experiment [1] stood at 141%. Besides, the “Synovial Cell Proliferation Rate (%)” value with HFLS-OA cells is −36.5%.
